Experimental data: patent US20240279283A1, “CYCLIC PEPTIDE ANTIBIOTICS” (priority 2021, published 2024)
Bridge positions count the residues as written; N and C are the ends. Square brackets hold non-standard residues; d marks the D form. Peptide text beside a SMILES is read from it. 1Nal = N[C@@H](Cc1cccc2ccccc12)C(=O)O; His(π-Me) = Cn1cncc1C[C@H](N)C(=O)O; NMeF = CN[C@@H](Cc1ccccc1)C(=O)O; Abu = CC[C@H](N)C(=O)O

Experiments:
E. coli BW25113 = assay: Minimum Inhibitory Concentration (MIC) determination, E. coli BW25113; type: cell-based; set-up: unit not given here; conditions: LB broth, 5×10^5 CFU/ml, 37° C., 18 hours, scored by eye
Description: (§1) MICs were determined by performing two-fold serial dilutions of peptides in LB broth to a final volume of 0.1 ml in round-bottom 96-well assay plates (Corning Life Sciences No 3788). Peptides were initially resuspended in 100% DMSO to 10 mM and subsequently diluted in LB medium to the appropriate concentration. Each well was inoculated with 5×10^5 CFU/ml of the screening stain and incubated at 37° C. without agitation for 18 hours. Plates were scored by eye, and the lowest compound concentration preventing visible growth was determined to be the MIC.

E. coli 25922 IMP = assay: Minimum Inhibitory Concentration (MIC) determination, E. coli 25922 IMP; type: cell-based; conditions: LB broth, 5×10^5 CFU/ml, 37° C., 18 hours, scored by eye
Description: as §1

Structure (SMILES) | MIC E. coli BW25113 WUXI::MIC (E. coli BW25113) | MIC E. coli 25922 IMP WUXI::MIC (E. coli 25922 IMP)
CC(C)[C@@H]1NC(=O)[C@H](Cc2ccccc2)NC(=O)CSC[C@@H](C(=O)NCC(N)=O)NC(=O)[C@H](Cc2cncn2C)NC(=O)[C@H](CCCNC(=N)N)NC(=O)[C@H](Cc2cnc[nH]2)NC(=O)[C@H](Cc2ccccc2)N(C)C(=O)[C@H](CCCNC(=N)N)NC(=O)[C@H](CO)NC(=O)CNC(=O)[C@H](Cc2cnc[nH]2)NC(=O)[C@H](Cc2c[nH]c3ccccc23)NC1=O (racemic) [Compound 9, rac-(3R,6S,9S,12S,15S,18S,21S,27S,30S, 33S,36S)-N-(2-amino-2-oxo-ethyl)-15,36-dibenzyl-9,18-bis(3-guanidinopropyl)-21-(hydroxymethyl)-12,27-bis(1H-imidazol-5-ylmethyl)-30-(1H-indol-3-ylmethyl)-33-isopropyl-16-methyl-6-[(3-methylimidazol-4-yl)methyl]-5,8,11,14,17,20,23,26,29,32,35,38-dodecaoxo-1-thia-4,7,10,13,16,19,22,25,28,31,34,37-dodecazacyclononatriacontane-3-carboxamide] | 8 | 9.5367E−07
CC[C@@H]1NC(=O)[C@H](Cc2ccccc2)NC(=O)CSC[C@@H](C(=O)NCC(N)=O)NC(=O)[C@H](Cc2cncn2C)NC(=O)[C@H](CCCNC(=N)N)NC(=O)[C@H](Cc2cnc[nH]2)NC(=O)[C@H](Cc2ccccc2)N(C)C(=O)[C@H](CCCNC(=N)N)NC(=O)[C@H](CO)NC(=O)CNC(=O)[C@H](Cc2cnc[nH]2)NC(=O)[C@H](Cc2cccc3ccccc23)NC1=O (racemic) [Compound 10, rac-(3R,6S,9S,12S,15S,18S,21S,27S,30S,3 3S,36S)-N-(2-amino-2-oxo-ethyl)-15,36-dibenzyl-33-ethyl-9,18-bis(3-guanidinopropyl)-21-(hydroxymethyl)-12,27-bis(1H-imidazol-5-ylmethyl)-16-methyl-6-[(3-methylimidazol-4-yl)methyl]-30-(1-naphthylmethyl)-5,8,11,14,17,20,23,26,29,32,35,38-dodecaoxo-1-thia-4,7,10,13,16,19,22,25,28,31,34,37-dodecazacyclononatriacontane-3-carboxamide] | 8 | 2.3842E−07
CC[C@@H]1NC(=O)[C@H](Cc2ccccc2)NC(=O)CSC[C@@H](C(=O)NCC(N)=O)NC(=O)[C@H](Cc2cncn2C)NC(=O)[C@H](CCCNC(=N)N)NC(=O)[C@H](Cc2cnc[nH]2)NC(=O)[C@H](Cc2ccccc2)N(C)C(=O)[C@H](CCCNC(=N)N)NC(=O)[C@H](CO)NC(=O)CN(C)C(=O)[C@H](Cc2cnc[nH]2)NC(=O)[C@H](Cc2c[nH]c3ccccc23)NC1=O (racemic) [Compound 11, rac-(3R,6S,9S,12S,15S,18S,21S,27S,30S, 33S,36S)-N-(2-amino-2-oxo-ethyl)-15,36-dibenzyl-33-ethyl-9,18-bis(3-guanidinopropyl)-21-(hydroxymethyl)-12,27-bis(1H-imidazol-5-ylmethyl)-30-(1H-indol-3-ylmethyl)-16,25-dimethyl-6-[(3-methylimidazol-4-yl)methyl]-5,8,11,14,17,20,23,26,29,32,35,38-dodecaoxo-1-thia-4,7,10,13,16,19,22,25,28,31,34,37-dodecazacyclononatriacontane-3-carboxamide] | 8 | 1.9074E−06
CC[C@@H]1NC(=O)[C@H](Cc2ccccc2)NC(=O)CSC[C@@H](C(=O)NCC(N)=O)NC(=O)[C@H](Cc2cncn2C)NC(=O)[C@H](CCCNC(=N)N)NC(=O)[C@H](Cc2cnc[nH]2)NC(=O)[C@H](Cc2ccc(O)cc2)N(C)C(=O)[C@H](CCCNC(=N)N)NC(=O)[C@H](CO)NC(=O)CNC(=O)[C@H](Cc2cnc[nH]2)NC(=O)[C@H](Cc2c[nH]c3ccccc23)NC1=O (racemic) [Compound 12] | 1 | 3.8137E−06
CC[C@@H]1NC(=O)[C@H](Cc2ccccc2)NC(=O)CSC[C@@H](C(=O)NCC(N)=O)NC(=O)[C@H](Cc2cncn2C)NC(=O)[C@H](CCCNC(=N)N)NC(=O)[C@H](Cc2cnc[nH]2)NC(=O)[C@H](Cc2ccc(O)cc2)N(C)C(=O)[C@H](CCCNC(=N)N)NC(=O)[C@H](CO)NC(=O)CN(C)C(=O)[C@H](Cc2cnc[nH]2)NC(=O)[C@H](Cc2c[nH]c3ccccc23)NC1=O (racemic) [Compound 13] | 4 | 0.00
CC[C@@H]1NC(=O)[C@H](Cc2ccccc2)NC(=O)CSC[C@@H](C(=O)NCC(N)=O)NC(=O)[C@H](Cc2cncn2C)NC(=O)[C@H](CC)NC(=O)[C@H](Cc2c[nH]cn2)NC(=O)[C@H](Cc2ccccc2)N(C)C(=O)[C@H](CCCNC(=N)N)NC(=O)[C@H](CO)NC(=O)CNC(=O)[C@H](Cc2c[nH]cn2)NC(=O)[C@H](Cc2c[nH]c3ccccc23)NC1=O [Compound 4, (3R,6S,9S,12S,15S,18S,21S,27S,30S, 33S,36S)-N-(2-amino-2-oxo-ethyl)-15,36-dibenzyl-9,33-diethyl-18-(3-guanidinopropyl)-21-(hydroxymethyl)-12,27-bis(1H-imidazol-4-ylmethyl)-30-(1H-indol-3-ylmethyl)-16-methyl-6-[(3-methylimidazol-4-yl)methyl]-5,8,11,14,17,20,23,26,29,32,35,38-dodecaoxo-1-thia-4,7,10,13,16,19,22,25,28,31,34,37-dodecazacyclononatriacontane-3-carboxamide] ({CH2CO}-F[Abu]WHGSR[NMeF]H[Abu][His(π-Me)]CG-NH2; thioether N-12) | >32 | 0.128
CC[C@@H]1NC(=O)[C@H](Cc2ccccc2)NC(=O)CSC[C@@H](C(=O)NCC(N)=O)NC(=O)[C@H](Cc2cncn2C)NC(=O)[C@H](CC)NC(=O)[C@H](Cc2c[nH]cn2)NC(=O)[C@H](Cc2ccccc2)N(C)C(=O)[C@H](CCCNC(=N)N)NC(=O)[C@H](CO)NC(=O)CNC(=O)[C@H](Cc2c[nH]cn2)NC(=O)[C@H](Cc2cccc3ccccc23)NC1=O [Compound 5, (3R,6S,9S,12S,15S,18S,21S,27S,30S, 33S,36S)-N-(2-amino-2-oxo-ethyl)-15,36-dibenzyl-9,33-diethyl-18-(3-guanidinopropyl)-21-(hydroxymethyl)-12,27-bis(1H-imidazol-4-ylmethyl)-16-methyl-6-[(3-methylimidazol-4-yl)methyl]-30-(1-naphthylmethyl)-5,8,11,14,17,20,23,26,29,32,35,38-dodecaoxo-1-thia-4,7,10,13,16,19,22,25,28,31,34,37-dodecazacyclononatriacontane-3-carboxamide] ({CH2CO}-F[Abu][1Nal]HGSR[NMeF]H[Abu][His(π-Me)]CG-NH2; thioether N-12) | >32 | 0.016
CC(C)[C@@H]1NC(=O)[C@H](Cc2ccccc2)NC(=O)CSC[C@@H](C(=O)NCC(N)=O)NC(=O)[C@H](Cc2cncn2C)NC(=O)[C@H](CCCNC(=N)N)NC(=O)[C@H](Cc2cnc[nH]2)NC(=O)[C@H](Cc2ccccc2)N(C)C(=O)[C@H](CCCNC(=N)N)NC(=O)[C@H](CO)NC(=O)CNC(=O)[C@H](Cc2c[nH]cn2)NC(=O)[C@H](Cc2cccc3ccccc23)NC1=O [Compound 6, (3R,6S,9S,12S,15S,18S,21S,27S,30S, 33S,36S)-N-(2-amino-2-oxo-ethyl)-15,36-dibenzyl-9,18-bis(3-guanidinopropyl)-21-(hydroxymethyl)-12,27-bis(1H-imidazol-4-ylmethyl)-33-isopropyl-16-methyl-6-[(3-methylimidazol-4-yl)methyl]-30-(1-naphthylmethyl)-5,8,11,14,17,20,23,26,29,32,35,38-dodecaoxo-1-thia-4,7,10,13,16,19,22,25,28,31,34,37-dodecazacyclononatriacontane-3-carboxamide] ({CH2CO}-FV[1Nal]HGSR[NMeF]HR[His(π-Me)]CG-NH2; thioether N-12) | 2 | <0.000125
CC[C@@H]1NC(=O)[C@H](Cc2ccccc2)NC(=O)CSC[C@@H](C(=O)NCC(N)=O)NC(=O)[C@H](Cc2cncn2C)NC(=O)[C@H](CCCNC(=N)N)NC(=O)[C@H](Cc2cnc[nH]2)NC(=O)[C@H](Cc2ccccc2)N(C)C(=O)[C@H](CCCNC(=N)N)NC(=O)[C@H](CO)NC(=O)CNC(=O)[C@H](Cc2c[nH]cn2)NC(=O)[C@H](Cc2c[nH]c3ccccc23)NC1=O [Compound 7, (3R,6S,9S,12S,15S,18S,21S,27S,30S, 33S,36S)-N-(2-amino-2-oxo-ethyl)-15,36-dibenzyl-33-ethyl-9,18-bis(3-guanidinopropyl)-21-(hydroxymethyl)-12,27-bis(1H-imidazol-4-ylmethyl)-30-(1H-indol-3-ylmethyl)-16-methyl-6-[(3-methylimidazol-4-yl)methyl]-5,8,11,14,17,20,23,26,29,32,35,38-dodecaoxo-1-thia-4,7,10,13,16,19,22,25,28,31,34,37-dodecazacyclononatriacontane-3-carboxamide] ({CH2CO}-F[Abu]WHGSR[NMeF]HR[His(π-Me)]CG-NH2; thioether N-12) | 2 | 0.0005
